The subject of data set [1] is P-gp. As to the kind of experiment: P-gp expression in HEK293T kidney cell line (IFA MFI, western blot). Type of data set: cell-based, human. The settings on record: Lexiscan® 1, 0.5, 0.1 μM, 15 minutes. The method, then: FIGS. 20A and 20B illustrate that Lexiscan® downregulates P-gp expression in the kidney cell line HEK293T while treatment with antagonist SCH58261 blocks Lexiscan®'s effects. […] HEK293T cells were grown to confluency on coverslips, and treated with varying concentrations of Lexiscan® (1, 0.5, and 0.1 μM) for 15 minutes. Cells were permeabilized and then stained with an antibody to P-gp (C219) and visualized under a fluorescent microscope. FIG. 20B is a graph of the MFI of P-gp in FIG. 20A. DMSO vs. Lexiscan® (“Lex”), *=P<0.05, Lexiscan® (“Lex”)+SCH58261 (“SCH”), ****P<0.0001.
HEK293T transformed kidney cells were treated with varying concentration of Lexiscan® (1, 0.5, 0.1 μM). Cells were lysed with lysis buffer ([…]), containing protease inhibitor cocktail. Samples were loaded on 7% SDS PAGE at 100V for 1 hour and transferred to nitrocellulose paper. The intensity of bands were analyzed by densitometry and plotted as a graph. Statistics: two-tailed student's t test: *=P<0.5, ****=P<0.0001.
Applicants investigated whether A2A AR agonists could modulate P-gp expression in the HEK293T human kidney cell line. HEK293T cells were grown to confluency on coverslips and treated with varying concentrations of Lexiscan, Lexiscan® plus the A2A antagonist (SCH58261), or vehicle control for 15 minutes. Cells were then permeabilized, stained with an antibody to P-gp, and visualized under a fluorescent microscope (FIG. 20A). The mean fluorescence intensity (MFI) of P-gp was quantified and graphed in FIG. 20B.
HEK293T cells were treated with various concentrations of Lexiscan, lysed, loaded onto an SDS-PAGE gel, transferred to a nitrocellulose membrane, and used for western blot analysis.
On the technique in general: In western blotting, separated proteins are transferred to a membrane and probed.

The conditions of data set [2]: cited from earlier work.
Data set [3] deals with P-gp. Nature of the data set: P-gp expression in Caco-2 human tumor cell line (IFA MFI, western blot). The settings on record: 1 μM for 30 minutes (IFA), 1, 0.5, 0.1 μM (western blot). It is filed as cell-based. On the procedure:
FIG. 19A are fluorescence microscopy images of Caco-2 cells (originally isolated from a human primary colonic tumor) grown on coverslips and treated with Lexiscan® (1 μM) or A1193 (1 μM), or DMSO (vehicle) control for 30 minutes. Next, cells were fixed, permeabilized, and stained with an antibody to P-gp. After washing, cells were mounted with DAPI for nuclear staining. FIG. 19B is a graph of the MFI of P-gp. FIG. 19C is a graph of densitometric analysis of a western blot of Caco-2 cells treated with Lexiscan® in varying concentrations (1, 0.5, and 0.1 μM). Densitometric analysis was performed to quantify the amount of P-gp in western blot. Statistics: two tailed student's t test for FIG. 19B, *<0.5.
Applicants also evaluated whether A2A AR agonists can modulate P-gp expression in a human tumor cell line, Caco-2 cells. Briefly, Caco-2 cells (originally isolated from a human tumor) were grown on coverslips and treated with Lexiscan®, A1193, or vehicle control for 30 minutes. Cells were then fixed, permeabilized, and stained with an antibody to P-gp. After washing, cells were mounted with DAPI for nuclear staining (FIG. 19A). The mean fluorescence intensity (MFI) of P-gp was quantified and graphed in FIG. 19B.

For data set [4], the system named is P-gp. Nature of the data set: Epirubicin accumulation and P-gp staining in MCF7 cells (fluorescence microscopy). It is filed as cell-based, human. The settings on record: 1 μM. On the procedure: MCF7 cells (human breast cancer cell line) were cultured in 24 well plates until they reached confluency. FIGS. 17A-17C are images of western blots of cells treated with vehicle control (i.e., DMSO) (“D”) or 1 μM of the broad spectrum AR agonist NECA (“N”) (FIG. 17A), 1 μM of the A2A AR agonist Lexiscan® (“L”) (FIG. 17B), or 1 μM of the A2B AR agonist BAY60 (“B”) (FIG. 17C), respectively for 24, 48, 72 hours. Cells were lysed with lysis buffer and expression levels of P-gp, MMP9, or VEGF analyzed by western blot. GAPDH was used as loading a control. FIG. 17D is a graph of experimental results showing that Lexiscan® down-regulates P-gp expression in MCF7 breast cancer cells. MCF7 breast cancer cells were treated with Lex (0.25 μM) concomitant with Rhodamine 123 (“Rho123”). […] Students T test, P<0.001. […] FIG. 17E is a fluorescence microscopy image showing MCF7 breast cancer cells grown on coverslips and treated with vehicle (DMSO, control), or A2 AR agonists, Lexiscan® (1 μM) or A1193 (1 μM) for 15 minutes in the presence of epirubicin. Cells were stained with an antibody to P-gp and mounted with DAPI. FIG. 17F is a graph of the fluorescent intensity quantified from FIG. 17E by measuring the mean fluorescent intensity (“MFI”) of epirubicin (pink) that is present in cell nuclei. ***=P<0.0001.
To further assess the modulation of A2A AR agonists on P-gp expression in MCF7 cells, applicants evaluated the accumulation of the P-gp substrate epirubicin in MCF7 cells. MCF7 cells were treated with DMSO (control), 1 μM Lexiscan®, or 1 μM of the A2A AR agonist A1193. […] In this case, the down-regulation of P-gp expression is equivalent to down-regulation of its function (Kim et al., “A2A Adenosine Receptor Modulates Drug Efflux Transporter P-Glycoprotein at the Blood-Brain Barrier,” J Clin Invest. 126(5):1717-33 (2016), which is hereby incorporated by reference in its entirety).

In data set [5] the target is T1, P-gp (Mus musculus, UniProt P21447).
T1 construct: down-modulation of P-gp expression and function in brain vascular endothelial cells in WT mice; from tissue; host or cells: brain of WT mice
As to the kind of experiment: Epirubicin brain accumulation assay. It is filed as in vivo. The settings on record: mice; 10 mg/kg epirubicin i.v. with 0.05 mg/kg Lexiscan® or 50 mg/kg PSC833 for 15 minutes. On the procedure: FIG. 12A is a fluorescence microscopy image showing immunofluorescence images of brains from Lexiscan®-treated mice of WT brain at 15 and 30 minutes after Lexiscan® treatment. Frozen brain sections were stained with GLUT1 (red), or P-gp (green) and counterstained with DAPI (blue). FIG. 12B is a fluorescence microscopy image showing an enlarged image of FIG. 12A. FIG. 12C is a graph summarizing the experimental results of a brain epirubicin accumulation assay in the Lexiscan®- and vehicle-treated (control) mice. Briefly, 10 mg/kg of epirubicin was injected intravenously with or without 0.05 mg/kg of Lexiscan®. Mice were perfused with ice-cold PBS and sacrificed at different time points. The accumulation of epirubicin in the brain was measured using fluorometric excitation at 488 nm and emission at 590 nm. *P<0.05 (n=4, 2-tailed Student's t test). FIG. 12D are fluorescence microscopy images showing fluorescent microscopic analysis of epirubicin accumulation in the brains of mice treated with Lexiscan® or PSC833 (a functional P-gp inhibitor) compared with vehicle (control). 10 mg/kg of epirubicin was injected intravenously with or without 0.05 mg/kg of Lexiscan® or 50 mg/kg of PSC833 for 15 minutes. Mice were perfused with ice-cold PBS and sacrificed. Brain was sectioned for microscopic analysis for full-brain image, and focal zoomed image from cortex was laid as an inset. Epirubicin is in red, and nucleus was counterstained with DAPI (blue). FIG. 12E are graphs showing the quantified intensity of epirubicin from different regions of cortex (CTX), cerebellum (CRBL), and hippocampus (HPC) from brains of control, Lexiscan®-, or PSC833-injected animals and depicted as graphs. The scale bars indicate 100 μm in FIG. 12A; 50 μm in FIG. 12B, and 5 mm in FIG. 12D). ***P<0.001 (n=50, 2-tailed Student's t test).
FIG. 14A is a western blot of P-gp and BCRP1 from mouse brain at 2 and 18 hours after NECA treatment. FIG. 14B are graphs showing the enumeration of the expression intensity of P-gp and BCRP1 from the western blots shown in FIG. 14A. The intensity of the bands from NECA treatment group was divided by that of DMSO control. […] For fluorescence microscopy, frozen brain sections were stained with GLUT1 (red) or P-gp (green) and counterstained with DAPI (blue). […] The accumulation of epirubicin in the brain was measured using fluorometry, with excitation at 488 nm and emission at 590 nm. *P<0.05 (n=4, 2-tailed Student's t test).
For Lexiscan® study, 10 mg/kg of epirubicin was injected with or without Lexiscan® (0.05 mg/kg) at different time points, and mice were sacrificed. […] Samples were spun down at 17,000 g for 30 minutes, and the concentration for epirubicin was analyzed with fluorimetry with […].

“Also recorded” adds a separate entry of the source.

T1 sequence (P21447 whole entry): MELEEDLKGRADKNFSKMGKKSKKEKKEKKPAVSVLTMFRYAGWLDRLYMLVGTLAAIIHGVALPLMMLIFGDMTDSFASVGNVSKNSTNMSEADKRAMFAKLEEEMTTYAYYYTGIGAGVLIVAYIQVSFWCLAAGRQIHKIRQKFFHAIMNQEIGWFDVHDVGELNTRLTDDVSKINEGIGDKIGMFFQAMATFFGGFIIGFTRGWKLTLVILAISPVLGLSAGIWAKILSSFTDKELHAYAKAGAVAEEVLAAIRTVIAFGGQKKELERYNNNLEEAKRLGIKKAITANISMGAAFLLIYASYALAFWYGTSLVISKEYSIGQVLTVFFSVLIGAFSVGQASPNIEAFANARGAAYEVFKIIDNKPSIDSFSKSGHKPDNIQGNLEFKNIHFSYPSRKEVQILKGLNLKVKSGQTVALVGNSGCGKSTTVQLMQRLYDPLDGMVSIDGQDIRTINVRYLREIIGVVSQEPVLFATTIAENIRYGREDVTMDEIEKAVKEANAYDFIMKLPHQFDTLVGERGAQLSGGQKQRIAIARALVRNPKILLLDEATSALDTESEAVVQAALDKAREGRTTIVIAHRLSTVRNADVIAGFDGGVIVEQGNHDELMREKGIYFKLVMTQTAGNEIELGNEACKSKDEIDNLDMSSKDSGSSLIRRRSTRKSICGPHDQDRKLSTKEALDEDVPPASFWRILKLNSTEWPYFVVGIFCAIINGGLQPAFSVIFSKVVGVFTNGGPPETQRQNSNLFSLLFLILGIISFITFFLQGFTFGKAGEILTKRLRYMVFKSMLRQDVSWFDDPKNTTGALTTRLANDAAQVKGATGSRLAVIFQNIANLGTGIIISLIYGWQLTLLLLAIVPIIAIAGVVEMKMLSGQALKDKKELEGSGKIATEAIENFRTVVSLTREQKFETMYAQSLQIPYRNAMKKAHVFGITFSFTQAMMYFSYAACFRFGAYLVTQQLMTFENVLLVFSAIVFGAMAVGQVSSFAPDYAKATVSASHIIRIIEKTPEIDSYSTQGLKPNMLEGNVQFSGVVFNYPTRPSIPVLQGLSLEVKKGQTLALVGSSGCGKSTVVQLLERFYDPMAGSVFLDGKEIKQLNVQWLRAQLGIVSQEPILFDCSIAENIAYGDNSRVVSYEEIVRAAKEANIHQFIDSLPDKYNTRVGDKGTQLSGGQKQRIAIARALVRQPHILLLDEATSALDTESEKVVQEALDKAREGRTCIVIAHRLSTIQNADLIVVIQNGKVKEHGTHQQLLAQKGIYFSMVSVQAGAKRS

Consider `Nc1nc2c(cnn2CCc2ccccc2)c2nc(-c3ccco3)nn12` [SCH58261, 2-(2-Furanyl)-7-(2-phenylethyl)-7H-pyrazolo[4,3-e][1,2,4]triazolo[1,5-c]pyrimidin-5-amine], for which, in data set [1], the “P-gp expression (MFI)” value is listed as “blocked the effects of Lexiscan®”.
For `Nc1ncnc2c1ncn2[C@@H]1O[C@H](CO)[C@@H](O)[C@H]1O` [adenosine, 9-β-D-Ribofuranosyl-9H-purin-6-amine], the half-life result in data set [2] is “about 10 seconds”.
With `CCNC(=O)[C@H]1O[C@@H](n2cnc3c(NCC(c4ccccc4)c4ccccc4)nc(C(=O)NCCNC(=O)NC4CCN(c5ccccn5)CC4)nc32)[C@H](O)[C@@H]1O` [A1193, 6-(2,2-diphenylethylamino)-9-((2R,3R,4S,5S)-5-(ethylcarbamoyl)-3,4-dihydroxytetrahydrofuran-2-yl)-N-(2-(3-(1-(pyridin-2-yl)piperidin-4-yl)ureido)ethyl)-9H-purine-2-carboxamide], in data set [3], the P-gp expression entry was “downregulate P-gp expression”. For the same compound, the “P-gp expression (antibody staining)” value in data set [4] (15 minutes) was “down-regulate P-gp expression”. In data set [4] (15 minutes in the presence of epirubicin), the “Epirubicin accumulation (MFI in cell nuclei)” value is listed as “retained significantly more epirubicin than those treated with control”.
On to `C/C=C/C[C@@H](C)C(=O)[C@H]1C(=O)N[C@@H](C(C)C)C(=O)N(C)CC(=O)N(C)[C@@H](CC(C)C)C(=O)N[C@@H](C(C)C)C(=O)N(C)[C@@H](CC(C)C)C(=O)N[C@@H](C)C(=O)N[C@H](C)C(=O)N(C)[C@@H](CC(C)C)C(=O)N(C)[C@@H](CC(C)C)C(=O)N(C)[C@@H](C(C)C)C(=O)N1C` [PSC833], for which the “Epirubicin fluorescent intensity in brain sections (cortex, cerebellum, hippocampus)” value in data set [5] was “Significantly lower epirubicin intensity; also recorded: lower epirubicin intensity than even the control treatment group”.

The values are drawn from patent publication US10953015B2, “Use of adenosine receptor signaling to regulate P-gp function” (CORNELL UNIVERSITY, priority 2016, dated 2021).
